Like-named read-outs stand apart in the source and are kept apart here.
Assays:
[1] = tested on: Clostridium difficile infection; assay: Phase IIIb/IV randomized open-label EXTEND study (2819-MA-1002): extended fidaxomicin vs standard vancomycin; type: in vivo, human
Procedure: Fidaxomicin (FDX) is believed to reduce recurrence primarily through minimal collateral damage to colonic microflora. […] Subjects will receive 200 mg twice daily (b.i.d.) for 5 days from Day 1 to Day 5. From Day 6 to Day 25, subjects will receive 200 mg once daily on alternate days (first alternate day dose given on Day 7). This extension of the dose will allow a longer period for the protective microflora to recover and extend the period of time over which Clostridium difficile cells are suppressed, and kill any dormant spores that germinate. The extension of the dose also targets the early recurrence period documented in the phase 3 studies—the first 15 days after the end of therapy during which the majority of recurrences occurred. By covering this period this revised dosing regimen may reduce the recurrence to <10%, preferably to <5% and even more preferred to <3%. The impact on the gut microflora was limited supporting the rationale for this study.
The dosing of vancomycin (Vancocin™) to be administered in this study is in line with the SmPC for Vancocin. Subjects will receive 125 mg four times daily (q.i.d.) for 10 days from Day 1 to Day 10.
The dosage regimen was as described in Table 1 of Example 1.

[2] = tested on: Clostridium difficile (C. diff) toxins A and B; assay: Detection of C. difficile toxins A and B in human faecal samples by ELISA (EXTEND samples); type: in vivo
Procedure: The detection of Clostridium difficile (C. diff) toxins A and B in human faecal samples was performed by ELISA. The samples to be analysed originated from clinical study 2819-MA-1002 (EXTEND).
The samples were sent to LGC (Analytical lab in Fordham, Cambridgeshire, UK) packed in dry ice and upon receipt stored in a freezer (nominally −80° C.). For each patient a stool sample was collected at Day 0 (screening) and also in case of disease recurrence or an unscheduled visit. For subjects participating in the Microbiome sub-study stool samples were collected at: Day 0 (screening), Day 5, Day 12, Day 27, Day 40, Day 55 and in the case of disease recurrence or an unscheduled visit. A total of 596 faecal samples were collected during the study.
C. difficile toxins A and B in human faecal samples were detected using TECHLAB C. difficile Tox A/B II ELISA kits (Product Number T5015).
The assay readout is the spectrophotometric dual wavelength optical density (OD) read at 450 nm and referenced at 620 nm and expressed in Absorbance Units (AU). All samples were measured in duplicate. The presence (+) or absence (−) of toxin was reported together with the mean OD.
The acceptability of each batch of test samples was dependent on the data from the QC samples fulfilling the acceptance criteria outlined below in Table 5, in that all positive QCs remain above the cut off value of >0.080 OD and negative QCs remain ≤0.080 OD. All batches contained 2 separate sets of QC samples which were measured in duplicate. The precision was calculated between the OD of replicates of each set using the coefficient of variation (CV) which should be <20%.

[3] = tested on: Clostridium difficile infection; conditions: Louie 2011; 200 mg Fidaxomicin twice daily or vancomycin 125 mg four times daily orally for 10 days; cited from earlier work
[4] = tested on: Clostridium difficile infection; conditions: Cornely 2012; 200 mg Fidaxomicin twice daily or vancomycin 125 mg four times daily orally for 10 days; cited from earlier work
CDI = conditions: Phase III studies, mITT analysis; cited from earlier work
[5] = tested on: Clostridium difficile infections (CDI); conditions: following a vancomycin taper; cited from earlier work
[6] = Day 55, extended fidaxomicin or standard vancomycin
[7] = Table 7, extended fidaxomicin regimen of Example 1 or standard vancomycin
[8] = extended fidaxomicin Day 55, standard vancomycin Day 40
[9] = Sub-study visit day 5, n = 20 per arm
[10] = Sub-study visit day 12, n = 20 per arm
[11] = Sub-study visit day 27, n = 20 Fidaxomicin, 17 Vancomycin

In the case of `CN[C@H](CC(C)C)C(=O)N[C@H]1C(=O)N[C@@H](CC(N)=O)C(=O)N[C@H]2C(=O)N[C@H]3C(=O)N[C@H](C(=O)N[C@H](C(=O)O)c4cc(O)cc(O)c4-c4cc3ccc4O)[C@H](O)c3ccc(c(Cl)c3)Oc3cc2cc(c3O[C@@H]2O[C@H](CO)[C@@H](O)[C@H](O)[C@H]2O[C@H]2C[C@](C)(N)[C@H](O)[C@H](C)O2)Oc2ccc(cc2Cl)[C@H]1O` [vancomycin], the “% of patients with <3 Unformed bowel movements per day (UBM)” value ([1]; Day 1) is reported as 21.1%, the “% of patients with ≥3 Unformed bowel movements per day (UBM)” value ([1]; Day 1) is reported as 78.9% and the “% of patients with <3 Unformed bowel movements per day (UBM)” value ([1]; Day 2) is reported as 40.6%. For the same compound, the “% of patients with ≥3 Unformed bowel movements per day (UBM)” value ([1]; Day 2) was 59.4%, the “% of patients with <3 Unformed bowel movements per day (UBM)” value ([1]; Day 3) was 59.6% and the “% of patients with ≥3 Unformed bowel movements per day (UBM)” value ([1]; Day 3) was 40.4%. For the same compound, the “% of patients with <3 Unformed bowel movements per day (UBM)” value ([1]; Day 4) was 72.0%, the “% of patients with ≥3 Unformed bowel movements per day (UBM)” value ([1]; Day 4) was 28.0% and the “% of patients with <3 Unformed bowel movements per day (UBM)” value ([1]; Day 5) was 81.4%. The “% of patients with ≥3 Unformed bowel movements per day (UBM)” value ([1]; Day 5) was 18.6%, the “% of patients with <3 Unformed bowel movements per day (UBM)” value ([1]; Day 6) was 80.6% and the “% of patients with ≥3 Unformed bowel movements per day (UBM)” value ([1]; Day 6) was 19.4%. For the same compound, the “% of patients with <3 Unformed bowel movements per day (UBM)” value ([1]; Day 7) was 85.5%, the “% of patients with ≥3 Unformed bowel movements per day (UBM)” value ([1]; Day 7) was 14.5% and the “% of patients with <3 Unformed bowel movements per day (UBM)” value ([1]; Day 8) was 86.8%. For the same compound, the “% of patients with ≥3 Unformed bowel movements per day (UBM)” value ([1]; Day 8) was 13.2%, the “% of patients with <3 Unformed bowel movements per day (UBM)” value ([1]; Day 9) was 88.1% and the “% of patients with ≥3 Unformed bowel movements per day (UBM)” value ([1]; Day 9) was 11.9%. The “% of patients with <3 Unformed bowel movements per day (UBM)” value ([1]; Day 10) was 89.9%, the “% of patients with ≥3 Unformed bowel movements per day (UBM)” value ([1]; Day 10) was 10.1% and the “% of patients with <3 Unformed bowel movements per day (UBM)” value ([1]; Day 11) was 91.5%. The “% of patients with ≥3 Unformed bowel movements per day (UBM)” value ([1]; Day 11) was 8.5%, the “% of patients with <3 Unformed bowel movements per day (UBM)” value ([1]; Day 12) was 94.7% and the “% of patients with ≥3 Unformed bowel movements per day (UBM)” value ([1]; Day 12) was 5.3%. The “% of patients with <3 Unformed bowel movements per day (UBM)” value ([1]; Day 13) was 84.4%, the “% of patients with ≥3 Unformed bowel movements per day (UBM)” value ([1]; Day 13) was 15.6% and the “Recurrence of CDI (%) at visit 5 (Day 55)” value [1, 6] was 16.1%. The “Recurrence of CDI at visit 5 (Day 55) (patients/N)” value [1, 6] was 26/161, the “Recurrence of CDI at visit 5 (Day 55) (patients/N)” value ([1]; Day 55, extended fidaxomicin or standard vancomycin, listed as VAN) was 15/94 and the “Recurrence 30 days after end of treatment (%)” value (from here on “Recurrence 30 days … (%)”) [1, 7] was 16.1%. The “Recurrence 30 days after end of treatment (patients/N)” value (shortened to “Recurrence 30 days … (patients/N)”) [1, 7] was 26/161, the “Sustained clinical cure (%) at 30 days after end of treatment” value [1, 8] was 62.9% and the “Sustained clinical cure at 30 days after end of treatment (patients/N)” value [1, 8] was 105/167. For the same compound, the “Sustained clinical cure (%) at 30 days after end of treatment” value ([1]; extended fidaxomicin Day 55, standard vancomycin Day 40, listed as VAN) was 62.9%, the “CDI toxin in faecal stool samples, Negative (%)” value (“CDI toxin … Negative (%)” for short) [2, 9] was “(75%)” and the “CDI toxin in faecal stool samples, Negative (number of subjects)” value (shortened to “CDI toxin … Negative (number of subjects)”) [2, 9] was 15. For the same compound, the “CDI toxin in faecal stool samples, Positive (%)” value [2, 9] was “(25.0%)”, the “CDI toxin in faecal stool samples, Positive (number of subjects)” value (“CDI toxin … Positive (number of subjects)” for short) [2, 9] was 5 and the “CDI toxin … Negative (%)” value [2, 10] was “(100.0%)”. The “CDI toxin … Negative (number of subjects)” value [2, 10] was 20, the “CDI toxin … Positive (number of subjects)” value [2, 10] was 0 and the “CDI toxin … Negative (%)” value [2, 11] was “(82.4%)”. The “CDI toxin … Negative (number of subjects)” value [2, 11] was 14, the “CDI toxin in faecal stool samples, Positive (%)” value [2, 11] was “(17.6%)” and the “CDI toxin … Positive (number of subjects)” value [2, 11] was 3. For the same compound, the “Recurrence 30 days … (%)” value [3] was 25.3%, the “Recurrence 30 days … (patients/N)” value [3] was 67/265 and the “Sustained clinical cure 30 days after end of treatment (patients/N)” value [3] was 198/309. The “Recurrence 30 days … (%)” value [4] was 26.9%, the “Recurrence 30 days … (patients/N)” value [4] was 60/223 and the “Sustained clinical cure 30 days after end of treatment (patients/N)” value [4] was 163/257. The “Recurrence of CDI” value (CDI) was 26% and the “Average symptom-free interval (SFI)” value [5] was 37 days.

Source: patent US10548912B2, “Dosage regimen for a tiacumicin compound” (Astellas Pharma Europe Ltd., priority 2015, dated 2020)
